Test results taken from the supplement of paper PMC10307832.

Key:
Experiment in all cases: relative viability (nuclei count vs DMSO), 5 days (fraction); higher = more cells survive
Midostaurin + Navitoclax = compound: CO[C@@H]1[C@H](N(C)C(=O)c2ccccc2)C[C@H]2O[C@]1(C)n1c3ccccc3c3c4c(c5c6ccccc6n2c5c31)C(=O)NC4 [Midostaurin] + CC1(C)CCC(c2ccc(Cl)cc2)=C(CN2CCN(c3ccc(C(=O)NS(=O)(=O)c4ccc(N[C@H](CCN5CCOCC5)CSc5ccccc5)c(S(=O)(=O)C(F)(F)F)c4)cc3)CC2)C1 [Navitoclax] (partner 0.5 µM)
How it was run: (§1)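 Dosing by pin tool came one day after lung cancer cell lines were seeded in 1536-well plates, using either one drug or a fixed anchor-drug dose plus five library-drug doses (not always all listed) in √10 steps. After 5 days, nuclei were counted on 4× images. Relative viability is treated-well nuclei count divided by vehicle-well nuclei count, and values are medians of duplicate plates.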

Midostaurin + Pictilisib = compound: CO[C@@H]1[C@H](N(C)C(=O)c2ccccc2)C[C@H]2O[C@]1(C)n1c3ccccc3c3c4c(c5c6ccccc6n2c5c31)C(=O)NC4 [Midostaurin] + CS(=O)(=O)N1CCN(Cc2cc3nc(-c4cccc5[nH]ncc45)nc(N4CCOCC4)c3s2)CC1 [Pictilisib] (partner 1 µM)
How it was run: as §1

Midostaurin + Phenformin = compound: CO[C@@H]1[C@H](N(C)C(=O)c2ccccc2)C[C@H]2O[C@]1(C)n1c3ccccc3c3c4c(c5c6ccccc6n2c5c31)C(=O)NC4 [Midostaurin] + N=C(N)NC(=N)NCCc1ccccc1 [Phenformin] (partner 250 µM)
How it was run: as §1

[1] = compound: COc1cc(-c2nn([C@H]3CC[C@H](N4CCN(C(C)=O)CC4)CC3)c3ncnc(N)c23)ccc1NC(=O)c1cc2ccccc2n1C + CCNC(=O)c1noc(-c2cc(C(C)C)c(O)cc2O)c1-c1ccc(CN2CCOCC2)cc1 [Luminespib] (partner 0.01 µM)
How it was run: as §1

[2] = compound: COc1cc(-c2nn([C@H]3CC[C@H](N4CCN(C(C)=O)CC4)CC3)c3ncnc(N)c23)ccc1NC(=O)c1cc2ccccc2n1C + Cc1nc(NC(=O)N2CCC[C@H]2C(N)=O)sc1-c1ccnc(C(C)(C)C(F)(F)F)c1 [Alpelisib] (partner 2 µM)
How it was run: as §1

| Cell Line | relative viability (Midostaurin + Navitoclax; first compound 0.01 µM) | relative viability (Midostaurin + Navitoclax; first compound 0.03162 µM) | relative viability (Midostaurin + Navitoclax; first compound 0.1 µM) | relative viability (Midostaurin + Navitoclax; first compound 0.3162 µM) | relative viability (Midostaurin + Pictilisib; first compound 0.01 µM) | relative viability (Midostaurin + Pictilisib; first compound 0.03162 µM) | relative viability (Midostaurin + Pictilisib; first compound 0.1 µM) | relative viability (Midostaurin + Pictilisib; first compound 0.3162 µM) | relative viability (Midostaurin + Phenformin; first compound 0.01 µM) | relative viability (Midostaurin + Phenformin; first compound 0.03162 µM) | relative viability (Midostaurin + Phenformin; first compound 0.1 µM) | relative viability (Midostaurin + Phenformin; first compound 0.3162 µM) | relative viability ([1]; first compound 0.0128 µM) | relative viability ([1]; first compound 0.04048 µM) | relative viability ([1]; first compound 0.128 µM) | relative viability ([1]; first compound 1.28 µM) | relative viability ([2]; first compound 0.0128 µM) | relative viability ([2]; first compound 0.04048 µM) | relative viability ([2]; first compound 0.128 µM) | relative viability ([2]; first compound 1.28 µM) |
| --- | --- | --- | --- | --- | --- | --- | --- | --- | --- | --- | --- | --- | --- | --- | --- | --- | --- | --- | --- | --- |
| LK-2 | 0.831 | 0.876 | 0.843 | 0.825 | 0.592 | 0.555 | 0.586 | 0.599 | 0.425 | 0.571 | 0.492 | 0.374 | 0.21 | 0.171 | 0.21 | 0.159 | 0.91 | 1.26 | 1.07 | 0.789 |
| LOU-NH91 | 0.753 | 0.702 | 0.729 | 0.825 | 0.541 | 0.54 | 0.514 | 0.562 | 0.755 | 0.701 | 0.764 | 0.798 | 0.413 | 0.28 | 0.352 | 0.321 | 0.77 | 0.74 | 0.759 | 0.564 |
| LU99A | 0.819 | 0.788 | 0.576 | 0.792 | 0.299 | 0.316 | 0.302 | 0.245 | 0.872 | 0.977 | 0.899 | 0.729 | 0.261 | 0.251 | 0.261 | 0.277 | 0.464 | 0.565 | 0.534 | 0.521 |
| LXF-289 | 0.954 | 0.92 | 0.875 | 0.968 | 0.812 | 0.766 | 0.764 | 0.598 | 0.519 | 0.51 | 0.49 | 0.505 | 0.783 | 0.732 | 0.663 | 0.702 | 1.1 | 1.03 | 1.04 | 0.958 |
| NCI-H23 | 0.875 | 0.95 | 0.396 | 0.788 | 0.448 | 0.402 | 0.439 | 0.326 | 0.713 | 0.798 | 0.773 | 0.772 | 0.198 |  | 0.201 | 0.191 | 0.63 | 0.632 | 0.659 | 0.476 |
| NCI-H322M | 1.18 | 1.19 | 1.31 | 1.26 | 0.52 | 0.493 | 0.5 | 0.594 | 0.831 | 0.673 | 0.811 | 0.875 | 0.887 | 0.935 | 0.756 | 0.483 | 0.801 | 0.844 | 0.681 | 0.741 |
| NCI-H441 | 0.402 | 0.832 | 0.522 | 0.554 | 0.496 | 0.434 | 0.488 | 0.512 | 0.914 | 0.773 | 0.747 | 0.768 | 0.337 | 0.347 | 0.31 | 0.244 | 0.762 | 0.985 | 0.556 | 0.576 |
| NCI-H460 | 1.08 | 0.994 | 1.05 | 1.07 | 0.388 | 0.296 | 0.346 | 0.417 | 0.492 | 0.507 | 0.561 | 0.534 | 0.0282 | 0.0389 | 0.0319 | 0.0347 | 0.386 | 0.59 | 0.57 | 0.378 |
| NCI-H520 | 1.05 | 1.17 | 1.02 | 0.865 | 0.257 | 0.239 | 0.3 | 0.362 | 0.572 | 0.471 | 0.756 | 0.634 | 0.219 | 0.211 | 0.174 | 0.243 | 0.881 | 0.908 | 0.697 | 0.471 |
| NCI-H596 | 1.09 | 1.02 | 0.978 | 1.07 | 0.376 | 0.435 | 0.435 | 0.424 | 0.898 | 0.963 | 0.816 | 0.986 | 1.06 | 1.2 | 0.893 | 0.583 | 0.523 | 0.511 | 0.516 | 0.271 |
| NCI-H647 | 1.16 | 0.997 | 0.953 | 0.738 | 0.387 | 0.532 | 0.311 | 0.294 | 0.533 | 0.603 | 0.473 | 0.433 | 0.172 | 0.168 | 0.158 | 0.159 | 1.03 | 1.18 | 0.945 | 0.429 |
| NCI-H727 | 0.41 | 0.368 | 0.361 | 0.4 | 0.491 | 0.301 | 0.378 | 0.329 | 0.545 | 0.437 | 0.665 | 0.538 | 0.417 |  | 0.343 | 0.236 | 0.62 |  | 0.454 | 0.405 |
| NCI-H838 | 1.23 | 1.04 | 1.02 | 0.354 | 0.565 | 0.48 | 0.302 | 0.276 | 0.704 | 0.551 | 0.397 | 0.274 | 0.343 | 0.303 | 0.243 | 0.261 | 1.03 | 1.01 | 1.01 | 0.664 |
| NCI-H1355 | 0.966 | 0.924 | 1.01 | 0.847 | 0.415 | 0.381 | 0.401 | 0.526 | 0.43 | 0.443 | 0.464 | 0.465 | 0.798 | 0.7 | 0.726 | 0.639 | 0.981 | 0.795 | 0.828 | 0.737 |
| NCI-H1395 | 1.11 | 1.09 | 1.17 | 1.25 | 0.592 | 0.588 | 0.588 | 0.615 | 0.459 | 0.459 | 0.488 | 0.523 | 0.631 | 0.651 | 0.646 | 0.398 | 0.947 | 1.47 | 0.995 | 0.953 |
